The test system of assay [1] is NCI-H1048 cells. The assay can be described thus: Cell growth inhibition (cell count, 8 days), small cell lung cancer NCI-H1048 cells. Format: cell-based. As to conditions: Homo sapiens, 192 h, cell count relative to DMSO control after 8 days, FIG. 1 (C). How it is done: FIG. 1. Provided compounds can provide various activities including inhibiting tumor growth in vivo. (A): Provided compounds can inhibit tumor growth in vivo. Nude Balb/c mice were inoculated with NCI-H1048 cells in Matrigel. Tumors were allowed to grow up to about 200 mm^3 and mice were then randomized into two groups. Mice were dosed intraperitoneally (i.p.) once per week with vehicle or 30 mg/kg compound 22. Tumor size was measured every three to four days and mice were sacrificed once vehicle tumors reached 2000 mm^3. Error bar is SEM. Dosing started at day 17 post tumor inoculation. (B): Provided technologies can reduce KAT2A and KAT2B levels and histone acetylation levels. […] Vehicle is DMSO. […] Cell count data relative to DMSO control after 8 days of treatment with compound 22 are presented as examples to confirm inhibition. GI50=6 nM. (D): Provided technologies can inhibit tumor growth in vivo. Nude balb/c mice inoculated with H1048 tumors were dosed intraperitoneally once per week (qw i.p.) with vehicle (HbCD) or compound 22. Average tumor volumes+/−SEM from 6 mice are represented. […] See also (A). […] Certain body weights relative to starting weight are presented as examples to confirm tolerability and safety. (F): Provided technologies can reduce KAT2A and KAT2B levels and histone acetylation levels in tumor in vivo. […]

For assay [2], the system named is histone acetylation. Kind of assay: Western blot of histone acetylation in acute myeloid leukemia MOLM-13 cells, 48 h. In kind it is cell-based. The conditions noted are these: FIG. 2 (A). The method, then: FIG. 2. Provided compounds can provide various activities. (A): Provided technologies can reduce KAT2A and KAT2B levels and histone acetylation levels. […] Cell count data after 8 days of treatment with compound 22 relative to DMSO control are presented as examples to confirm inhibition. […] (C): Provided technologies can modulate cell states and induce differentiation. […] EC50=0.3 nM.
A general note: Immunoblotting shows a protein as a band on a membrane.

Assay [3] has as its system NCI-H1048 cells. The assay can be described thus: Cell growth inhibition, SCLC cell line NCI-H1048 (cell count, day 11). Format: cell-based, human. The conditions noted are these: for GI50: Homo sapiens. The text has this:
Among other things, provided technologies are useful for treating various diseases, disorders, or conditions. For example, in some embodiments, provided technologies are useful for treating cancer as confirmed in the present Example. […] In some embodiments, provided technologies can inhibit cell proliferation. In some embodiments, the present disclosure provides technologies for assessing various technologies, e.g., compounds, compositions, or methods. Among other things, the present Example provides technologies, e.g., cell growth inhibition assay, for assessing various technologies. […] In some embodiments, the following cell growth inhibition methods are utilized to assess provided technologies.
SCLC: SCLC cell lines NCI-H1048 and NCI-H1876 were cultured in DMEM F12 media with 5% FBS, 1% Penicillin/Streptomycin and HITES supplement (Hydrocortisone, Insulin, Transferrin, Estradiol and Sodium Selenite). NCI-H1048 cells were plated at 10,000 cells/well of a 24-well plate and NCI-H1876 cells were plated at 20,000 cells/well of a 96-well plate. Compound and media were replenished every two days out to day 11 and 10 respectively. Cells were then trypsinized and counted using either hemocytometer or an automated Countess cell counter.
In some assessments, for cell growth inhibition, cells, e.g., MOLM13, NCI-H1048, and LASCPC-01 cells, were counted using a hemocytometer or automated cell counting in triplicates. In some assessments, proliferation in NEPC organoids as measured with Cell Titer Glo reagent (Promega). Growth inhibition was determined relative to vehicle control.

Assay [4] has as its system histone acetylation (e.g., AcH3K9). Kind of assay: Histone H3K9 acetylation (AcH3K9), Western Blot, LASCPC-01 cells. Format: cell-based. The conditions noted are these: FIG. 3. The method, then:
In some embodiments, an assessment is performed using cells. In some embodiments, cells were treated with various compounds before assessing KAT2A and/or KAT2B levels, histone (e.g., H3K9) acetylation levels, cell states, growth, etc.
Western Blot: In some assessments, MOLM13, NCI-H1048, LASCPC-01 and NEPC organoid cells were treated with compounds at certain concentrations for certain periods of time, and cell pellets were lysed by adding 1-part 4×laemmli Sample buffer (e.g., Bio-Rad Catalog #1610747) along with Mercaptoethanol (e.g., Bio-Rad Catalog #1610710) according to manufacturer's instructions, and 1-part RIPA buffer with 2×protease and phosphatase inhibitor. The samples were sonicated 30% amplitude, 35 seconds on and 35 seconds off for 1 cycle and boiled at 95° C. for 5 minutes. 30-35 μL of samples were loaded on a 4-15% Criterion™ TGX Stain-Free™ Protein Gel (Bio-rad, 5678084). In some assessments, NCI-H1048 flash frozen tumor pieces were resuspended in RIPA buffer and homogenized on TissueLyser II with steel beads at 30 Hz for 3 minutes. Samples were then centrifuged at […] at 4° C. for 15 minutes. BCA protein determination was performed and samples normalized for 1.95 ug/uL. 19.5 uL were loaded and run on similar gels as cell pellets. […]

The subject of assay [5] is CD86 in MOLM-13 cells. The assay can be described thus: Flow cytometry for CD86 (monocytic differentiation) in MOLM-13. In kind it is cell-based. The conditions noted are these: FIG. 2. The method, then:
In some assessments, flow cytometry was utilized to assess levels of cells expressing certain polypeptides. For example, for flow cytometry for CD86 in MOLM-13, MOLM13 cells were stained with Live/Dead solution (Fixable Live/Dead NIR 1:100 in PBS) at RT, in the dark, for 20 min and then washed once with cell staining solution. The cells were then blocked with Human Fc Blocker solution at RT for 8 mins. Then they were labeled with CD86-APC R700 (565149, BD) (2.5 uL/test) on ice for 30 min in the dark. Following incubation, cells were washed once with cell staining solution. Flow cytometric acquisition was done on BD Celesta flow cytometer (BD Biosciences) and analyses were performed using Flow-Jo software.

A word on the GI50: it is the concentration that inhibits growth by half. Consider `CN1C[C@H](Nc2cnn(C)c(=O)c2Br)C[C@H](c2ccc(C(=O)N3CCC(CN4CCN(c5ccc6c(c5)CN(C5CCC(=O)NC5=O)C6=O)CC4)CC3)cc2)C1` (stereo partly drawn) [Compound 22, 3-(5-(4-((1-(4-((3R,5R)-5-((5-bromo-1-methyl-6-oxo-1,6-dihydropyridazin-4-yl)amino)-1-methylpiperidin-3-yl)benzoyl)piperidin-4-yl)methyl)piperazin-1-yl)-1-oxoisoindolin-2-yl)piperidine-2,6-dione], for which the GI50 in assay [1] worked out at 6 nM; in assay [3] (264 h, NCI-H1048, day 11, cell count, read-out: H1048 GI50), 1 nM; in assay [3] (NCI-H1048, comparison table with Ref-1, read-out: Growth GI50) it was 1.5 nM. The “reduction of histone acetylation level” value in assay [2] is “confirm such reduction”. The “cell growth in vitro” value in assay [3] (NCI-H1048 cells, FIG. 1) was “inhibit cell growth in vitro and in vivo”. Also, the “histone acetylation (e.g., AcH3K9) levels” value in assay [4] is “reduce histone acetylation (e.g., AcH3K9) levels”. In addition, the “induction of differentiation (CD86)” value in assay [5] is reported as “induce differentiation (e.g., monocytic differentiation as assessed using CD86)”.

The record behind these values is patent US20260306640A1, “TECHNOLOGIES TARGETING CELL STATES” (Auron Therapeutics, Inc., priority 2023, published 2026).
